Measured values published in ChEMBL document CHEMBL1201862, “PubChem BioAssay data set” (2004).
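Grown in 96-well plates, cells were treated for 48 hours with each compound at five concentrations. Insufficient inhibition: endpoint recorded as highest concentration tested. GI50 is the concentration that inhibits growth by half.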 Active and inactive are the calls of the source. No stated cut-off is given here; in the data, active = GI50 up to about 1.1 µM and inactive = higher.

How the values were obtained:
Experiment in all cases: growth of human tumour cells (NCI), 48 h
SNB-75 = tested on: SNB-75
A549 = tested on: A549
SF-268 = tested on: SF-268
SK-OV-3 = tested on: SK-OV-3
M14 = tested on: M14
HCT-15 = tested on: HCT-15
TK-10 = tested on: TK-10
A498 = tested on: A498
NCI-H226 = tested on: NCI-H226
SF-539 = tested on: SF-539
HOP-62 = tested on: HOP-62
COLO 205 = tested on: COLO 205
OVCAR-3 = tested on: OVCAR-3
IGROV-1 = tested on: IGROV-1
SK-MEL-5 = tested on: SK-MEL-5
K562 = tested on: K562
HOP-92 = tested on: HOP-92
OVCAR-8 = tested on: OVCAR-8
HL-60 = tested on: HL-60

Measured: GI50

O=C(O)CCSC(=O)Nc1cccc2ccccc12
inactive: SNB-75 > 100 µM | A549 > 100 µM | SF-268 > 100 µM | SK-OV-3 > 100 µM | M14 > 100 µM | TK-10 > 100 µM | A498 > 100 µM | NCI-H226 > 100 µM | SF-539 > 100 µM | HOP-62 > 100 µM | COLO 205 > 100 µM | OVCAR-3 > 100 µM | IGROV-1 > 100 µM | SK-MEL-5 > 100 µM | K562 > 100 µM | HOP-92 > 100 µM | OVCAR-8 > 100 µM
> 100 µM: HCT-15

C=C(C)C1CCC2(C)CC1c1c(c(C)cc3c1[nH]c1ccccc13)O2 (centres undefined)
inactive: A549 > 25 µM | SF-268 > 25 µM | SK-OV-3 > 25 µM | M14 > 25 µM | HL-60 11.9 µM | NCI-H226 16.7 µM | SF-539 > 25 µM | HOP-62 19 µM | COLO 205 > 25 µM | OVCAR-3 > 25 µM | IGROV-1 > 25 µM | SK-MEL-5 > 25 µM | K562 12 µM | HOP-92 > 25 µM | OVCAR-8 > 25 µM
> 25 µM: HCT-15

O=C(Cc1ccccc1)NN1C(=O)C(Cl)C1c1ccc(O)cc1 (centres undefined)
> 100 µM: HCT-15
inactive: SNB-75 47.2 µM | A549 > 100 µM | SF-268 > 100 µM | SK-OV-3 > 100 µM | M14 > 100 µM | HL-60 62.7 µM | TK-10 > 100 µM | NCI-H226 > 100 µM | HOP-62 > 100 µM | COLO 205 > 100 µM | OVCAR-3 > 100 µM | IGROV-1 > 100 µM | SK-MEL-5 > 100 µM | K562 > 100 µM | OVCAR-8 > 100 µM

Nc1ccc(C(=O)N/C(=C\c2cccc([N+](=O)[O-])c2)c2nc3c4c(ccc3[nH]2)C(=O)c2ccccc2C4=O)cc1
inactive: SNB-75 1.76 µM | A549 18.6 µM | SF-268 2.94 µM | SK-OV-3 19.3 µM | M14 > 100 µM | TK-10 19.2 µM | A498 15.5 µM | SF-539 13.8 µM | HOP-62 > 100 µM | COLO 205 > 100 µM | OVCAR-3 12.7 µM | IGROV-1 8.39 µM | SK-MEL-5 57.4 µM | K562 56 µM | HOP-92 29.4 µM | OVCAR-8 25 µM
70.5 µM: HCT-15

Cc1cn(C2CC(n3cncn3)C(C(C)O)O2)c(=O)[nH]c1=O (centres undefined)
> 100 µM: HCT-15
inactive: SNB-75 > 100 µM | A549 > 100 µM | SF-268 > 100 µM | SK-OV-3 > 100 µM | M14 > 100 µM | HL-60 > 100 µM | TK-10 > 100 µM | NCI-H226 > 100 µM | SF-539 > 100 µM | COLO 205 > 100 µM | OVCAR-3 > 100 µM | IGROV-1 > 100 µM | SK-MEL-5 > 100 µM | K562 > 100 µM | HOP-92 > 100 µM | OVCAR-8 > 100 µM

CCCCCCCCCC(=O)Oc1cccc2onc(C)c12
> 100 µM: HCT-15
inactive: SNB-75 > 100 µM | A549 > 100 µM | SF-268 > 100 µM | SK-OV-3 > 100 µM | M14 > 100 µM | HL-60 19.4 µM | TK-10 > 100 µM | NCI-H226 88.9 µM | SF-539 > 100 µM | HOP-62 > 100 µM | COLO 205 > 100 µM | OVCAR-3 > 100 µM | IGROV-1 > 100 µM | SK-MEL-5 > 100 µM | K562 73.1 µM | HOP-92 > 100 µM | OVCAR-8 > 100 µM

O=C(c1ccccc1)C(c1ccccc1)C1(O)C(=O)Nc2c(Cl)ccc(Cl)c21 (centres undefined)
inactive: SNB-75 16.8 µM | A549 26.1 µM | SF-268 21.9 µM | SK-OV-3 30.8 µM | M14 16.8 µM | HL-60 15.6 µM | TK-10 32.6 µM | A498 25.3 µM | SF-539 20.3 µM | HOP-62 21.4 µM | COLO 205 22.2 µM | OVCAR-3 17.4 µM | IGROV-1 20.6 µM | SK-MEL-5 18.2 µM | K562 12.5 µM | HOP-92 19.6 µM | OVCAR-8 19.4 µM
18.4 µM: HCT-15

C/C(CN1C(=O)c2ccccc2C1=O)=N\NS(C)(=O)=O
inactive: SNB-75 > 100 µM | A549 > 100 µM | SF-268 > 100 µM | SK-OV-3 > 100 µM | M14 > 100 µM | HL-60 > 100 µM | TK-10 > 100 µM | A498 > 100 µM | NCI-H226 > 100 µM | SF-539 > 100 µM | HOP-62 > 100 µM | COLO 205 > 100 µM | OVCAR-3 > 100 µM | IGROV-1 > 100 µM | SK-MEL-5 > 100 µM | K562 > 100 µM | OVCAR-8 > 100 µM
> 100 µM: HCT-15

C=CCC1([C@H](C)[C@@H](OC(C)=O)c2cc(OC)c(OC)c(OC)c2)C[C@@H](OC)CCC1=O (some centres undefined)
inactive: SNB-75 18 µM | A549 27.7 µM | SF-268 13.7 µM | SK-OV-3 59.4 µM | M14 15.6 µM | HL-60 12.8 µM | TK-10 51.3 µM | NCI-H226 22.5 µM | SF-539 16.4 µM | HOP-62 35.7 µM | COLO 205 19.1 µM | OVCAR-3 20.7 µM | IGROV-1 19.1 µM | SK-MEL-5 > 100 µM | K562 16.4 µM | HOP-92 23 µM | OVCAR-8 17 µM
14.2 µM: HCT-15

N#C/C(=C/c1cccc(Oc2ccccc2)c1)c1ccccc1
> 100 µM: HCT-15
inactive: SNB-75 > 100 µM | A549 > 100 µM | SF-268 > 100 µM | SK-OV-3 > 100 µM | M14 > 100 µM | HL-60 64.7 µM | TK-10 > 100 µM | A498 > 100 µM | NCI-H226 > 100 µM | SF-539 > 100 µM | COLO 205 55 µM | IGROV-1 > 100 µM | SK-MEL-5 > 100 µM | K562 36.7 µM | HOP-92 93.8 µM | OVCAR-8 > 100 µM

COc1ccc(/C=C\c2cc(OC)c(OC(C)=O)c(OC)c2)cc1
inactive: SNB-75 2.84 µM | A549 5.18 µM | SF-268 10.5 µM | SK-OV-3 51.8 µM | M14 18.2 µM | A498 14.2 µM | NCI-H226 27.4 µM | SF-539 2.32 µM | HOP-62 5.92 µM | COLO 205 34.4 µM | OVCAR-3 20.8 µM | IGROV-1 29.7 µM | SK-MEL-5 5.55 µM | K562 2.03 µM | HOP-92 19.1 µM | OVCAR-8 8.89 µM
5.12 µM: HCT-15

C=C(C)[C@H]1CC(=O)/C(C)=C\CC/C(C)=C/CC[C@@]2(C)O[C@@H]2C1
inactive: SNB-75 41.4 µM | A549 15.8 µM | SF-268 23 µM | SK-OV-3 24.4 µM | M14 32.5 µM | HL-60 27.5 µM | TK-10 31.9 µM | A498 > 100 µM | SF-539 20 µM | HOP-62 40.2 µM | COLO 205 16.5 µM | OVCAR-3 17 µM | IGROV-1 29 µM | SK-MEL-5 23.7 µM | K562 28.4 µM | HOP-92 48.5 µM | OVCAR-8 35.5 µM
33.9 µM: HCT-15

CCOC(=O)C1S/C(=N\c2ccc(Cl)c(Cl)c2)N=C1C (centres undefined)
20.8 µM: HCT-15
inactive: SNB-75 29.9 µM | A549 28.4 µM | SF-268 54.6 µM | SK-OV-3 53.8 µM | M14 34.6 µM | HL-60 20.4 µM | TK-10 76.7 µM | A498 26 µM | NCI-H226 23.4 µM | SF-539 34 µM | HOP-62 56.9 µM | COLO 205 29 µM | OVCAR-3 17.9 µM | IGROV-1 48.8 µM | K562 13.4 µM | OVCAR-8 35.4 µM

N/C(=N\N=C=C1C(=O)Nc2ccc(F)cc21)NO
inactive: SNB-75 21.3 µM | A549 > 100 µM | SF-268 > 100 µM | SK-OV-3 59.2 µM | M14 > 100 µM | HL-60 47.5 µM | TK-10 > 100 µM | A498 > 100 µM | SF-539 > 100 µM | HOP-62 > 100 µM | COLO 205 > 100 µM | OVCAR-3 > 100 µM | IGROV-1 > 100 µM | SK-MEL-5 > 100 µM | K562 95.9 µM | HOP-92 65.3 µM | OVCAR-8 > 100 µM
> 100 µM: HCT-15

Cn1nc2n(c1=O)CCCN2
inactive: SNB-75 > 100 µM | A549 > 100 µM | SF-268 > 100 µM | HL-60 > 100 µM | TK-10 > 100 µM | A498 > 100 µM | NCI-H226 > 100 µM | SF-539 > 100 µM | HOP-62 > 100 µM | COLO 205 > 100 µM | OVCAR-3 > 100 µM | IGROV-1 > 100 µM | SK-MEL-5 > 100 µM | K562 > 100 µM | HOP-92 > 100 µM | OVCAR-8 > 100 µM
> 100 µM: HCT-15

N#Cc1c2c(c(Nc3cccc(C(F)(F)F)c3)n3c1nc1ccccc13)CCC2
inactive: SNB-75 > 100 µM | SF-268 > 100 µM | SK-OV-3 > 100 µM | TK-10 > 100 µM | A498 > 100 µM | NCI-H226 > 100 µM | SF-539 > 100 µM | HOP-62 > 100 µM | COLO 205 > 100 µM | OVCAR-3 > 100 µM | SK-MEL-5 > 100 µM | HOP-92 6.5 µM | OVCAR-8 > 100 µM
> 100 µM: HCT-15
